Legend:
Type in all cases: cell-based, human
HCT-116 cells [1] = assay: Inhibition test for sphere-forming ability of cancer cells (Test Example 1), HCT-116; settings: for IC50: HCT-116 cells, concentration for 50% inhibition of cell proliferation, read-out: IC50 (μmol/L) HCT-116 (Sphere IC50 value); for inhibitory effect on the sphere-forming ability of cancer cells: Test Example 1, summary in words, cell line not given (HCT-116, HT-29, FaDu tested)
Outline: (§1)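 HCT-116, HT-29 and FaDu cells seeded at 350-800 cells/well on ultra-low attachment plates in serum-free DMEM/F12 with B27, 20 ng/mL EGF, 10 ng/mL bFGF and 5 μg/mL insulin. Compound given at 0.1% DMSO for 4 days; viable cells measured by CellTiter-Glo to give Sphere IC50 (μmol/L).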

HT-29 cells [2] = assay: Inhibition test for sphere-forming ability of cancer cells (Test Example 1), HT-29; settings: concentration for 50% inhibition of cell proliferation, read-out: IC50 (μmol/L) HT-29 (Sphere IC50 value)
Outline: as §1

HCT-116 cells [3] = assay: Inhibition test for sphere-forming ability of cancer cells in the presence of BSA (Test Example 2), HCT-116; settings: for IC50: HCT-116 cells, in the presence of 5% BSA, cultured 4 days; for inhibitory effect on the sphere-forming ability of cancer cells: Test Example 2, in the presence of 5% BSA, summary in words, cell line not given (HCT-116, HT-29, FaDu tested)
Description: (§2) Human colorectal cancer-derived HCT-116 cells, human colon-adenocarcinoma-derived HT-29 cells, and human pharyngeal cancer-derived FaDu cells were available from American Type Culture Collection (ATCC). HCT-116 cells and HT-29 cells were cultured at 37° C. under 5% CO2 using the McCoy's 5a medium containing 10% fetal bovine serum (FBS) and 1% penicillin/streptomycin, and FaDu cells were cultured at 37° C. under 5% CO2 using the MEM medium containing 10% FBS, 1% non-essential amino acid, 1% sodium pyruvate, 5% bovine serum albumin (BSA), and 1% penicillin/streptomycin. HCT-116 cells, HT-29 cells, and FaDu cells were seeded in a 384 Well Black Clear Bottom Ultra-Low Attachment Microplate (Corning Cat. No. 3827) in an amount of 350-800 cells/well using the DMEM/F12 medium containing 2% B27 supplement (GIBCO), 20 ng/mL epidermal growth factor (EGF) (peprotech), 10 ng/mL basic fibroblast growth factor (bFGF) (peprotech), 5 μg/mL insulin (Sigma), 5% bovine serum albumin (BSA), and 1% penicillin/streptomycin. Each test compound was added into each well to adjust the final concentration of DMSO to 0.1%, and the cells were cultured for 4 days. The number of viable cells in each well was then measured with CellTiter-Glo® Luminescent Cell Viability Assay (Promega) to calculate the concentration of each test compound for 50% inhibition of cell proliferation (Sphere IC50 value; μmol/L).
(§3) The experiment of Test Example 2 was performed for each compound of each Example.
(§4) The concentration of each test compound for 50% inhibition of cell proliferation (Sphere IC50 value; μmol/L) is shown in the following Table.

HT-29 cells [4] = assay: Inhibition test for sphere-forming ability of cancer cells in the presence of BSA (Test Example 2), HT-29; settings: in the presence of 5% BSA, cultured 4 days
Description: as §2, §3, §4

FaDu cells = assay: Inhibition test for sphere-forming ability of cancer cells (Test Example 1), FaDu; settings: Homo sapiens, concentration for 50% inhibition of cell proliferation, read-out: IC50 (μmol/L) FaDu (Sphere IC50 value)
Outline: as §1

Row | SMILES | IC50 (HCT-116 cells [1]) [µmol/L] | inhibitory effect on the sphere-forming ability of cancer cells (HCT-116 cells [1]) | IC50 (HT-29 cells [2]) [µmol/L] | IC50 (HCT-116 cells [3]) [nM] | inhibitory effect on the sphere-forming ability of cancer cells (HCT-116 cells [3]) | IC50 (HT-29 cells [4]) [nM] | IC50 (HCT-116 cells [1]; Homo sapiens) [µmol/L] | IC50 (HT-29 cells [2]; Homo sapiens) [µmol/L] | IC50 (HCT-116 cells [3]; Homo sapiens, HCT-116, 96 h) [nM] | IC50 (HT-29 cells [4]; Homo sapiens, 96 h) [nM] | IC50 (FaDu cells) [µmol/L]
1 | Cc1ccc2cc(NC(=O)c3cn(Cc4cc(F)c(F)c(F)c4)cn3)ccc2n1 [Example 252] | 0.03 | particularly potent inhibitory effect | < 0.01 | 80 | particularly potent inhibitory effect | 50 |  |  |  |  | 
2 | O=C(Nc1cn(Cc2cccc(C(F)(F)F)c2)cn1)c1cnc2ncccc2c1 [Example 188] | 0.72 |  | 0.63 | 5540 |  | 850 |  |  |  |  | 
3 | O=C(Nc1cn(Cc2cccc(C(F)(F)F)c2)cn1)c1ccc(NCC(F)(F)F)nc1 [Example 249] |  |  |  |  |  |  | 0.49 | 0.29 | 2420 | 490 | 
4 | O=C(Nc1cn(Cc2cccc(Cl)c2)cn1)c1ccc2cnccc2c1 [Example 191] | 0.31 | particularly potent inhibitory effect | 0.09 | 690 |  | 530 |  |  |  |  | 
5 | O=C(Nc1cn(Cc2cccc(C(F)(F)F)c2)cn1)c1cnc2ccccc2c1 [Example 181] | 0.77 |  | 0.19 | 8000 |  | 3310 |  |  |  |  | 
6 | O=C(Nc1cn(Cc2cccc(Cl)c2)cn1)c1ccc2ncccc2c1 [Example 137] | 0.81 |  | 0.57 | > 10000 |  | 6130 |  |  |  |  | 
7 | CC(=O)Nc1ccc(/C=C/C(=O)Nc2cn(Cc3cccc(C(F)(F)F)c3)cn2)nc1 [Example 230] |  |  |  |  |  |  | 6.02 | 0.94 | > 10000 | 5840 | 
8 | O=C(Nc1cn(Cc2cccc(C(F)(F)F)c2)cn1)c1ccc2cnccc2n1 [Example 193] | 0.07 | particularly potent inhibitory effect | 0.06 | 600 |  | 610 |  |  |  |  | 
9 | C=Cc1ncc(C(=O)Nc2cn(Cc3cccc(C(F)(F)F)c3)cn2)cc1OC [Example 100] |  |  |  |  |  |  | 6.63 | 1.96 | 8380 | 6330 | 
10 | Cc1ccc2cc(NC(=O)c3cn(Cc4cccc(Cl)c4)cn3)ccc2n1 [Example 255, 1-(3-Chlorobenzyl)-N-(2-methylquinolin-6-yl)-1H-imidazole-4-carboxamide] |  | particularly potent inhibitory effect |  |  |  |  | 0.06 | < 0.01 | 630 | 390 | 
11 | O=C(Nc1cn(Cc2cccc(Cl)c2)cn1)c1cnc2ccccc2c1 [Example 138] | 0.1 | particularly potent inhibitory effect | 0.2 | > 10000 |  | 6140 |  |  |  |  | 
12 | O=C(Nc1cn(Cc2cccc(C(F)(F)F)c2)cn1)c1ccc2cnccc2c1 [Example 186] | 0.08 | particularly potent inhibitory effect | 0.05 | 560 | particularly potent inhibitory effect | 100 |  |  |  |  | 
13 | COc1ccc(/C=C/C(=O)Nc2cn(Cc3cccc(Cl)c3)cn2)cc1O [Example 23, (E)-N-(1-(3-Chlorobenzyl)-1H-imidazol-4-yl)-3-(3-hydroxy-4-methoxyphenyl)acrylamide] |  |  |  |  | particularly potent inhibitory effect |  | 0.61 | 0.47 | 370 |  | < 0.01
14 | COc1ccc(NC(=O)c2cn(Cc3cccc(Cl)c3)cn2)cc1OC [Example 262] | 0.83 |  | 0.6 | 6050 |  | 720 |  |  |  |  | 
15 | CS(=O)(=O)Nc1ccc(/C=C/C(=O)Nc2cn(Cc3cccc(Cl)c3)cn2)cc1 [Example 4, (E)-N-(1-(3-Chlorobenzyl)-1H-imidazol-4-yl)-3-(4-(methylsulfonamide)phenyl)acrylamide] |  |  |  |  |  |  | 5.79 | 0.69 | 6400 |  | 0.67
16 | O=C(Nc1cn(Cc2cccc(C(F)(F)F)c2)cn1)c1ccncn1 [Example 179] | 2.91 |  | 4.65 | 5960 |  | 5760 |  |  |  |  | 
17 | O=C(Nc1cccnc1)c1cn(Cc2cccc(Cl)c2)cn1 [Example 264] | 8.49 |  | 6.04 | > 10000 |  | 6270 |  |  |  |  | 
18 | O=C(Nc1cn(Cc2cccc(C(F)(F)F)c2)cn1)c1cnc2cnccc2c1 [Example 192] | 0.05 | particularly potent inhibitory effect | < 0.01 | 70 | particularly potent inhibitory effect | 70 |  |  |  |  | 
19 | O=C(Nc1cn(Cc2cccc(C(F)(F)F)c2)cn1)c1ccc2ncccc2c1 [Example 183] | 0.94 |  | 0.29 | > 10000 |  | 6400 |  |  |  |  | 
20 | N#Cc1ccc(/C=C/C(=O)Nc2cn(Cc3cccc(Cl)c3)cn2)cc1 [Example 22] |  | particularly potent inhibitory effect |  |  | particularly potent inhibitory effect |  | 0.08 | < 0.01 | 640 |  | 0.06
21 | O=C(Nc1cn(Cc2cc(F)c(F)c(F)c2)cn1)c1ccc2cnccc2c1 [Example 190] | 0.06 | particularly potent inhibitory effect | 0.06 | 270 |  | 60 |  |  |  |  | 
22 | COC(=O)c1ccc(OCC(=O)Nc2cn(Cc3cc(F)c(F)c(F)c3)cn2)cn1 [Example 132, Methyl 5-(2-oxo-2-{[1-(3,4,5-trifluorobenzyl)-1H-imidazol-4-yl]amino}ethoxy)picolinate] |  |  |  |  |  |  | 8.22 | 6.37 | > 10000 | 6460 | 
23 | O=C(Nc1cn(Cc2cccc(C(F)(F)F)c2)cn1)c1ccc(NCCO)nc1 [Example 248, 6-[(2-Hydroxyethyl)amino]-N-{1-[3-(trifluoromethyl)benzyl]-1H-imidazol-4-yl}nicotinamide] |  |  |  |  |  |  | 1 | 0.83 | 6500 | 5130 | 
24 | COc1cc(C(=O)Nc2cn(Cc3cccc(C(F)(F)F)c3)cn2)cnc1Cl [Example 228] | 6.39 |  | 4.17 | > 10000 |  | 4880 |  |  |  |  | 
25 | Cn1cc(C(=O)Nc2cn(Cc3cccc(C(F)(F)F)c3)cn2)ccc1=O [Example 242, 1-Methyl-6-oxo-N-{1-[3-(trifluoromethyl)benzyl]-1H-imidazol-4-yl}-1,6-dihydropyridine-3-carboxamide] |  | particularly potent inhibitory effect |  |  |  |  | 0.38 | 0.29 | 2140 |  | 0.11
26 | COc1ccc(/C=C/C(=O)Nc2cn(Cc3cccc(C(F)(F)F)c3)cn2)cc1O [Example 31, (E)-3-(3-Hydroxy-4-methoxyphenyl)-N-(1-(3-(trifluoromethyl)benzyl)-1H-imidazol-4-yl)acrylamide] |  |  |  |  | particularly potent inhibitory effect |  | 0.84 | 0.65 | 90 |  | < 0.01
27 | COc1ccc(/C=C/C(=O)Nc2cn(Cc3cccc(Cl)c3)cn2)cc1OCCO [Example 33, (2E)-N-[1-(3-chlorobenzyl)-1H-imidazol-4-yl]-3-[3-(2-hydroxyethoxy)-4-methoxyphenyl]prop-2-enamide] |  | particularly potent inhibitory effect |  |  | particularly potent inhibitory effect |  | 0.06 | 0.01 | 590 |  | < 0.01

— patent US10898469B2, “Imidazolylamide derivative” (Sumitomo Dainippon Pharma Co., Ltd., priority 2016, dated 2021)
